Measurements published in patent publication US20090203797A1, “Antimycotic Patch” (priority 2007, published 2009).
Counter-ions that a name gives are not always drawn.

Assays:
[1] = from the interview form provided with 125 mg Lamisil Tablets; cited from earlier work
[2] = octanol/water partition coefficient logKo/w; assay type: physicochemical; details: 32° C., HPLC of each layer
Procedure: In the present invention, logKo/w is determined in the following manner. First, a drug is dissolved in a suitable amount of octanol (or water) at 32° C. followed by the further addition of an equal amount of water (or octanol) and mixing well. After the mixture divides into two layers, the concentration of drug in each layer is measured by HPLC and logKo/w is determined using the equation below. LogKo/w=log(drug concentration in octanol phase/drug concentration in aqueous phase)

Row | SMILES | logKo/w value [1] | logP [2]
1 | CN(C/C=C/C#CC(C)(C)C)Cc1cccc2ccccc12 [terbinafine hydrochloride] | 0.87 | 
2 | CN(C/C=C/C#CC(C)(C)C)Cc1cccc2ccccc12 [terbinafine-base] |  | 5.8
